Reference: patent US5696108A, “Protein kinase C inhibitors” (Eli Lilly and Company, priority 1996, dated 1997)
Where a name gives a salt, the structure may show the parent alone.

Legend:
Details in all cases: Table 1
PKC-α = PKC-α (Homo sapiens, UniProt P17252); assay: PKC Enzyme Assay, alpha isozyme; type: biochemical
Procedure: (§1) PKC enzymes=alpha, beta I, beta II, gamma, delta, epsilon, eta and zeta.
(§2) Assay components in a total volume of 250 μL are as follows:
(§3) For all the enzymes either histone type HL (Worthington) or myelin basic protein is used as substrate. The assay is started by addition of protein kinase C enzyme incubated at 30° C. for 10 minutes and stopped by adding 0.5 mL of cold trichloroacetic acid (Amresco) followed by 100 μL of 1 mg/mL bovine serum albumin (Sigma, St. Louis, Mo.). The precipitate is collected by vacuum filtration on glass fiber filters employing a TOMTEC™ filtration system and quantified by counting in a beta scintillation counter.

PKC-β1 = PKC-β1 (Homo sapiens, UniProt P05771); assay: PKC Enzyme Assay, beta-1 isozyme; type: biochemical
Procedure: as §1, §2, §3

PKC-β2 = PKC-β2 (Homo sapiens, UniProt P05771); assay: PKC Enzyme Assay, beta-2 isozyme; type: biochemical
Procedure: as §1, §2, §3

casein protein kinase II = target: T1, casein protein kinase II (Rattus norvegicus, UniProt P19139); assay: Casein Protein Kinase II Assay (CK-II); type: biochemical
T1 construct: isolated from rat brain homogenate; from tissue; host or cells: rat brain homogenate
Procedure: Casein Protein Kinase II Assay (CK-II)
The Casein Protein Kinase II Assay is described in Neurochem. […] The assay components are in a total volume of 250 μL: 20 mM Tris-HCl, pH 7.5, 5 mM sodium fluoride, 50 mg/mL Casein (Sigma, St. Louis, Mo.), 10 mM magnesium chloride (Sigma, St. Louis, Mo.), 10 μL DMSO or DMSO/inhibitor and 30 μm (gamma-32P) ATP (DuPont). Initiation of the reaction is performed by addition of casein protein kinase II (isolated from rat brain homogenate), incubated at room temperature for 10 minutes and stopped by the addition of 0.5 mL ice cold Trichloroacetic acid (Amresco) followed by 100 μL of 1 mg/mL bovine serum albumin (Sigma, St. Louis, Mo.). The precipitate is collected by vacuum filtration on glass fiber filters and quantified by counting in a beta scintillation counter.
Assay components in order of addition
10 μL or DMSO or DMSO/inhibitor
25 μL of AT32P in 300 μM magnesium chloride
40 μL of enzyme (undiluted)
Buffer prepared as follows:
(Final volume=3.5 mL: amount of 20 assays)

src = target: T2, src (Homo sapiens, UniProt P12931); assay: Protein Tyrosine Kinase Assay (src); type: biochemical
T2 construct: purchased Onogene Science, Inc. PK02 and PK03
Procedure: Protein Tyrosine Kinase Assay (src)
The Assay components are the following:
4 μL DMSO or DMSO/inhibitor

[1] = target: T3, cAMP-dependent kinase catalytic subunit (Bos taurus, UniProt P00517); assay: cAMP-Dependent protein Kinase Catalytic Subunit Assay; type: biochemical, bovine
T3 construct: purchased Sigma, St. Louis, Mo; host or cells: bovine heart
Procedure: cAMP-Dependent protein Kinase Catalytic Subunit Assay (PEA) The Assay components are in a total volume of 250 μL: 20 mM HEPES (Sigma, St. Louis, Mo.) buffer pH 7.5, 200 μg/mL histone type HL (Worthington), 10 mM magnesium chloride (Sigma, St. […] The reaction is initiated by addition of bovine heart cAMP-dependent kinase catalytic subunit (Sigma, St. Louis, Mo.), incubated to 30° C. for 10 minutes and stopped by adding 0.5 mL ice cold Trichloroacetic acid (Amresco) followed by 100 μL of 1 mg/mL bovine serum albumin (Sigma). The precipitate is collected by vacuum filtrated on glass fiber filters employing a TOMTEC™ and quantified by counting in a beta scintillation counter. This assay is done identical to the protein kinase C (PKC) enzyme assay except that no phospholipids or diacylglycerol are employed in the assay and the histone substrate is specific for the cAMP-dependent catalytic subunit enzyme.

[2] = target: calcium calmodulin dependent protein kinase; assay: Calcium Calmodulin Dependent Protein Kinase Assay (CAM); type: biochemical, rat
Procedure: Calcium Calmodulin Dependent Protein Kinase Assay (CAM)
The reaction is initiated by the addition of calcium calmodulin dependent protein kinase (isolated from rat brain homogenate), incubated at room temperature for 10 minutes and stopped by adding 0.5 mL ice cold trichloroacetic acid (Amresco) followed by 100 μL of 1 mg/mL bovine serum albumin (Sigma, St. Louis, Mo.). The precipitate is collected by vacuum filtration on glass fiber filters and quantified by counting in a beta scintillation counter.
25 μL calmodulin (250 μg/mL)
10 μL DMSO or DMSO/inhibitor

T1 sequence (P19139 whole entry): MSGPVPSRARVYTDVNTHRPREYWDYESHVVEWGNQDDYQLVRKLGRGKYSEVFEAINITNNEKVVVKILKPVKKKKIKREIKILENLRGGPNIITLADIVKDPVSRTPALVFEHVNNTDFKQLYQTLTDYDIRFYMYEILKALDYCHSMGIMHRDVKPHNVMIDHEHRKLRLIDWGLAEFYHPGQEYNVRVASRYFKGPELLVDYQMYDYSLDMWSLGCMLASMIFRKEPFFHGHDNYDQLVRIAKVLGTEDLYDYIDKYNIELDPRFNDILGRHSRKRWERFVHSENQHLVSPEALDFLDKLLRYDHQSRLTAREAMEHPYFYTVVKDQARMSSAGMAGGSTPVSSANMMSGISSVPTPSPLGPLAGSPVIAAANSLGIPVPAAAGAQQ
T1 sequence (P67874 2-215 partner limits assumed): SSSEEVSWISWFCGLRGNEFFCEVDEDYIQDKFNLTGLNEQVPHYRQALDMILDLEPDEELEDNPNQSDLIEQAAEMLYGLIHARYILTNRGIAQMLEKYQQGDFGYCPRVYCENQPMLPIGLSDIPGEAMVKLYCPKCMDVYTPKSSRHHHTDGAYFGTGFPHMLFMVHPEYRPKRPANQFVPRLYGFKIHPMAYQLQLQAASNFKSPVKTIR
Chain of PKC-β2 (P05771 1-673 isoform P05771-2): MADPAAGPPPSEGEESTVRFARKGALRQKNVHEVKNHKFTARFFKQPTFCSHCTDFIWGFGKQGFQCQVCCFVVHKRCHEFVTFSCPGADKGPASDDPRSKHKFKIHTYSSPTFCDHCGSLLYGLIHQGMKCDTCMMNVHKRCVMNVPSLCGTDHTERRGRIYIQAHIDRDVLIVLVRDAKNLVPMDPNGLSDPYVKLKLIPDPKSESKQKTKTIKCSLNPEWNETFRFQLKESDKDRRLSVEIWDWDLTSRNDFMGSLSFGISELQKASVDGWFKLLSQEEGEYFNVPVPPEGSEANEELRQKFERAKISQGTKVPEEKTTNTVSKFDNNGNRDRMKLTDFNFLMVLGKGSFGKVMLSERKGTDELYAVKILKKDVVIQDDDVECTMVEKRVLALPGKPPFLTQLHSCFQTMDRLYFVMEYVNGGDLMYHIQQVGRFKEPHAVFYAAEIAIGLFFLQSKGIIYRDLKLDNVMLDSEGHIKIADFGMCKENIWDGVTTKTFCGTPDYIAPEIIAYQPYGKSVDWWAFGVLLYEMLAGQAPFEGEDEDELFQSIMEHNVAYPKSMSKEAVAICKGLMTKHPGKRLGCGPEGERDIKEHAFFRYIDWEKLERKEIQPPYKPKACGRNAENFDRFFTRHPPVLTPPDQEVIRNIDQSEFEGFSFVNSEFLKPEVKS
Chain of PKC-β1 (P05771 whole entry): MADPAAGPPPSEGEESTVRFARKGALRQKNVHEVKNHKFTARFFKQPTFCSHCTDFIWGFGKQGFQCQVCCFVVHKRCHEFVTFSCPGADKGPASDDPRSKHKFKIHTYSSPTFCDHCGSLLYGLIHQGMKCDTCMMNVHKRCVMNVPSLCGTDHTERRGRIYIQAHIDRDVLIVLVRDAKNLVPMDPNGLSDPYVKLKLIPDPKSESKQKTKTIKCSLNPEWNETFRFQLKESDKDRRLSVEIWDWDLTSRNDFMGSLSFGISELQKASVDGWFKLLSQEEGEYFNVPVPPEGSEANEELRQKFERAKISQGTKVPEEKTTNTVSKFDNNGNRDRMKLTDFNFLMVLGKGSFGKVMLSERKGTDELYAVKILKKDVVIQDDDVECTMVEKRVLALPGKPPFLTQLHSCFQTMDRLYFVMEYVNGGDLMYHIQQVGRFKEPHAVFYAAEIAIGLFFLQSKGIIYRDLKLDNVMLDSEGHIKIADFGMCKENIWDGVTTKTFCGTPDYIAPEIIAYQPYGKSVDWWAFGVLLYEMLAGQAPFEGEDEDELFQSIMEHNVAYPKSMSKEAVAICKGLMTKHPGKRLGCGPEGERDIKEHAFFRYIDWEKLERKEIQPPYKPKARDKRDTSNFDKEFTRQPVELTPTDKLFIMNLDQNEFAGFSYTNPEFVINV
T2 sequence (P12931 whole entry, species assumed): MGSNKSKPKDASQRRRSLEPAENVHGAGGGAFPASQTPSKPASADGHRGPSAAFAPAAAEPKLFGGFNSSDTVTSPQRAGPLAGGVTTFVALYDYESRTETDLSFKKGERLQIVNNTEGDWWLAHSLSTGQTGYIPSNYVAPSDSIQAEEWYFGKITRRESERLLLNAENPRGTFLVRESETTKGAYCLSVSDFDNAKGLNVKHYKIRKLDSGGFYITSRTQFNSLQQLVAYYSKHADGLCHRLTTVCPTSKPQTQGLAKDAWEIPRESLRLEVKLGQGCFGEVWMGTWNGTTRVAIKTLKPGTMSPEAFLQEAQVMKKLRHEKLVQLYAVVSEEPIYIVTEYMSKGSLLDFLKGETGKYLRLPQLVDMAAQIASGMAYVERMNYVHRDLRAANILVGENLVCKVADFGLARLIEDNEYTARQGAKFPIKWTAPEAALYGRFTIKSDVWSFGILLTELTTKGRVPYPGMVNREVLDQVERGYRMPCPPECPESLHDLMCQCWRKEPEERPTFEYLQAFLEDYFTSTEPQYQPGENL

`O=C1NC(=O)C2=C1c1cn(c3ccccc13)CCOCCn1cc2c2ccccc21` [Example 1, 3,4-[(N,N'-1,1'-ethoxyethyl)-bis-(3,3'-indolyl)]-1H-pyrrole-2,5-dione] gave an IC50 (PKC-α) of 1000 nM, an IC50 (PKC-β1) of 50 nM and an IC50 (PKC-β2) of 40 nM. For the same compound, the IC50 (casein protein kinase II) was greater than 100000 nM.

`O=C1NC(=O)C2=C1c1cn(c3ccccc13)CCOC(CO)CCn1cc2c2ccccc21` (stereo not drawn) [Example 3] showed an IC50 (src) greater than 100000 nM.

In the case of `CN(C)C[C@H]1CCn2cc(c3ccccc32)C2=C(C(=O)NC2=O)c2cn(c3ccccc23)CCO1` [Example 5r], the IC50 [1] is reported as greater than 100000 nM, the IC50 [2] is reported as 5000 nM and the IC50 (casein protein kinase II) is reported as greater than 100000 nM.

`CN(C)C[C@@H]1CCn2cc(c3ccccc32)C2=C(C(=O)NC2=O)c2cn(c3ccccc23)CCO1` [Example 5s] was tested, and the IC50 [1] was greater than 100000 nM, the IC50 [2] was 8000 nM and the IC50 (casein protein kinase II) was greater than 100000 nM.

For `O=C1NC(=O)C2=C1c1cn(c3ccccc13)CCOCC(CO)CCn1cc2c2ccccc21` (stereo not drawn) [Example 6], the IC50 (PKC-α) was 4200 nM, the IC50 (PKC-β1) was 43 nM and the IC50 (PKC-β2) was 35 nM.

`O=C1NC(=O)C2=C1c1cn(c3ccccc13)CCOCC(CN1CCCC1)CCn1cc2c2ccccc21` (stereo not drawn) [Example 7, 3,4-[(N,N'-1,1'-(2"-ethoxy-(3"'((O)-methylene)-4"'-(N-pyrrolidino)-butane)-bis-(3,3'-indolyl)]-1(H)-pyrrole-2,5-dione hydrochloride salt] was tested, and the IC50 (PKC-α) was greater than 5000 nM, the IC50 (PKC-β1) was 150 nM and the IC50 (PKC-β2) was 180 nM.

With `CN(C)CC1CCn2cc(c3ccccc32)C2=C(C(=O)NC2=O)c2cn(c3ccccc23)CCOC1` (stereo not drawn) [Example 8, 3,4-[(N,N'-1,1'-(2"-ethoxy-(3"'((O)-methylene)-4"'-(N,N-dimethylamino)-butane)-bis-(3,3'-indolyl)]-1(H)-pyrrole-2,5-dione hydrochloride salt] the IC50 (PKC-α) was 2500 nM, the IC50 (PKC-β1) was 37 nM and the IC50 (PKC-β2) was 32 nM.

`O=C1NC(=O)C2=C1c1cn(c3ccccc13)CCCOC(CN1CCCC1)CCn1cc2c2ccccc21` (stereo not drawn) [Example 12] gave an IC50 (PKC-α) of 19000 nM, an IC50 (PKC-β1) of 600 nM and an IC50 (PKC-β2) of 500 nM. The IC50 [1] was greater than 100000 nM, the IC50 [2] was 93000 nM and the IC50 (casein protein kinase II) was greater than 100000 nM.

For `O=C1NC(=O)C2=C1c1cn(c3ccccc13)CCCOC(CNCc1ccccc1)CCn1cc2c2ccccc21` (stereo not drawn) [Example 13], the IC50 (PKC-α) was greater than 5000 nM, the IC50 (PKC-β1) was 1900 nM and the IC50 (PKC-β2) was 940 nM.

With `O=C1NC(=O)C2=C1c1cn(c3ccccc13)CCCOC(CNS(=O)(=O)c1ccccc1)CCn1cc2c2ccccc21` (stereo not drawn) [Example 15] the IC50 (PKC-α) was greater than 5000 nM, the IC50 (PKC-β1) was 2900 nM and the IC50 (PKC-β2) was 830 nM.

`O=C(NCC1CCn2cc(c3ccccc32)C2=C(C(=O)NC2=O)c2cn(c3ccccc23)CCCO1)OCc1ccccc1` (stereo not drawn) [Example 16] gave an IC50 (PKC-α) greater than 5000 nM, an IC50 (PKC-β1) of 3200 nM and an IC50 (PKC-β2) of 2300 nM.

In the case of `O=C1NC(=O)C2=C1c1cn(c3ccccc13)CCO[C@@H](CNCc1ccccc1)CCn1cc2c2ccccc21` [Example 18r], the IC50 (PKC-α) is reported as 3400 nM, the IC50 (PKC-β1) is reported as 83 nM and the IC50 (PKC-β2) is reported as 87 nM. For the same compound, the IC50 [1] was greater than 100000 nM, the IC50 [2] was 8800 nM and the IC50 (casein protein kinase II) was greater than 100000 nM.

`O=C1NC(=O)C2=C1c1cn(c3ccccc13)CCO[C@H](CNCc1ccccc1)CCn1cc2c2ccccc21` [Example 18s] showed an IC50 (PKC-α) of 6400 nM, an IC50 (PKC-β1) of 380 nM and an IC50 (PKC-β2) of 300 nM. The IC50 [1] was greater than 100000 nM and the IC50 (casein protein kinase II) was greater than 100000 nM.

Compound `O=C1NC(=O)C2=C1c1cn(c3ccccc13)CCO[C@H](CNS(=O)(=O)c1ccccc1)CCn1cc2c2ccccc21` [Example 21s] has an IC50 (PKC-β1) of 170 nM and an IC50 (PKC-β2) of 44 nM.

`CN1CCN(C[C@@H]2CCn3cc(c4ccccc43)C3=C(C(=O)NC3=O)c3cn(c4ccccc34)CCO2)CC1` [Example 23s] was tested, and the IC50 (PKC-α) was 1800 nM, the IC50 (PKC-β1) was 300 nM and the IC50 (PKC-β2) was 240 nM.

With `O=C1NC(=O)C2=C1c1cn(c3ccccc13)CCO[C@H](CN1CCOCC1)CCn1cc2c2ccccc21` [Example 24s] the IC50 (PKC-α) was 3500 nM, the IC50 (PKC-β1) was 490 nM and the IC50 (PKC-β2) was 380 nM.

`O=C(NC[C@H]1CCn2cc(c3ccccc32)C2=C(C(=O)NC2=O)c2cn(c3ccccc23)CCO1)OCc1ccccc1` [Example 25r] was tested, and the IC50 (PKC-α) was 94000 nM, the IC50 (PKC-β1) was 43 nM and the IC50 (PKC-β2) was 120 nM. It also gave an IC50 [1] greater than 100000 nM, an IC50 [2] of 22000 nM and an IC50 (casein protein kinase II) greater than 100000 nM.

For `O=C1NC(=O)C2=C1c1cn(c3ccccc13)CCOc1ccccc1Cn1cc2c2ccccc21` [Example 27, 3,4-[(N,N'-1,1'-(2"-ethoxy)-benzyl)-bis-(3,3'-indolyl)]-1(H) -pyrrole-2,5-dione hydrochloride], the IC50 (PKC-α) was 2200 nM, the IC50 (PKC-β1) was 49 nM and the IC50 (PKC-β2) was 26 nM.

With `O=C(OCc1ccccc1)OCC1CCCn2cc(c3ccccc32)C2=C(C(=O)NC2=O)c2cn(c3ccccc23)CC1` (stereo not drawn) [Example 29, 3,4-[(N,N'-1,1'-(3"-(benzylcarbonate)methylene)hexane)-bis-(3,3'-indolyl)]-1H-pyrrole-2,5-dione] the IC50 (PKC-α) was greater than 100000 nM, the IC50 (PKC-β1) was 700 nM and the IC50 (PKC-β2) was 800 nM.

Work on `O=C1NC(=O)C2=C1c1cn(c3ccccc13)CCC[C@@H](CO)CCn1cc2c2ccccc21` [Example 31r] yielded an IC50 (PKC-α) of 240 nM, an IC50 (PKC-β1) of 19 nM and an IC50 (PKC-β2) of 8 nM.

`NCC1CCCn2cc(c3ccccc32)C2=C(C(=O)NC2=O)c2cn(c3ccccc23)CC1` (stereo not drawn) [Example 33, 3,4-[(N,N'-1,1'-(3"-aminomethylene)-hexane)-bis-(3,3'-indolyl)]-1H-pyrrole-2,5-dione] showed an IC50 (PKC-α) of 400 nM, an IC50 (PKC-β1) of 50 nM and an IC50 (PKC-β2) of 40 nM. For the same compound, the IC50 [2] was 600 nM and the IC50 (src) was 61000 nM.

For `CN(C)C[C@H]1CCCn2cc(c3ccccc32)C2=C(C(=O)NC2=O)c2cn(c3ccccc23)CC1` [Example 40s, (S)-3,4-[(N,N'-1,1'-(3"-(N,N-dimethylamine)methylene)-hexane)-bis-(3,3'-indolyl)]-1H-pyrrole-2,5-dione hydrochloride salt], the IC50 (PKC-α) was 400 nM, the IC50 [1] was greater than 100000 nM and the IC50 [2] was 41000 nM. For the same compound, the IC50 (casein protein kinase II) was greater than 100000 nM.

`O=C1NC(=O)C2=C1c1cn(c3ccccc13)CCCC(Cn1ccnc1)CCn1cc2c2ccccc21` (stereo not drawn) [Example 41, 3,4-[(N,N'-1,1'-(3"-(N-imidazole)methylene)-hexane)-bis-(3,3'-indolyl)]-1H-pyrrole-2,5-dione] was tested, and the IC50 (PKC-α) was 300 nM, the IC50 [2] was 3000 nM and the IC50 (casein protein kinase II) was greater than 100000 nM. It also gave an IC50 (src) of 91000 nM.

With `O=C1NC(=O)C2=C1c1cn(c3ccccc13)CCCCCCCCn1cc2c2ccccc21` [Example 44] the IC50 (PKC-α) was greater than 100000 nM, the IC50 (PKC-β1) was 2000 nM and the IC50 (PKC-β2) was 2000 nM.

Compound `O=C1NC(=O)C2=C1c1cn(c3ccccc13)CCC(CO)CCn1cc2c2ccccc21` [Example 51, 3,4-[(N,N'-1,1'-(3"-(hydroxy)methylene)pentan)-bis-(3,3'-indolyl)]-1(H)-pyrrole-2,5-dione] has an IC50 (PKC-α) of 49000 nM, an IC50 (PKC-β1) of 500 nM and an IC50 (PKC-β2) of 500 nM.

`CN(C)CC1CCn2cc(c3ccccc32)C2=C(C(=O)NC2=O)c2cn(c3ccccc23)CC1` [Example 54, 3,4-[(N,N'-1,1'-(3"-(N,N-(dimethylamino)methylene)pentanyl)-bis-(3,3'-indolyl)]-1(H)-pyrrole-2,5-dione hydrochloride] was tested, and the IC50 (PKC-α) was 160 nM, the IC50 (PKC-β1) was 5 nM and the IC50 (PKC-β2) was 4 nM.

In the case of `O=C1NC(=O)C2=C1c1cn(c3ccccc13)CCCOC(CNCc1ccccc1)CCn1cc2c2ccccc21` (stereo not drawn) [Example 55], the IC50 (PKC-β1) is reported as 410 nM and the IC50 (PKC-β2) is reported as 380 nM.
